Experimental data reported in paper PMC3644400 (Investigational New Drugs, 2012).
Like-named read-outs stand apart in the source and are kept apart here.

How the values were obtained:
[1] = Plasma pharmacokinetics (HPLC tandem-mass spectrometry); conditions: MTD group
clinical = conditions: human, in vivo
[2] = human, in vivo
advanced solid tumors = conditions: intermittent high-dose gefitinib given prior to docetaxel; cited from earlier work
[3] = Phase I dose escalation: MTD and dose-limiting toxicity; type: in vivo, patients
Procedure: Docetaxel was initiated at 60 mg/m^2 IV infusion and increased to 75 mg/m^2 IV infusion in the absence of DLT.
A standard ‘3 + 3’ design was used. The MTD was defined as the highest dose of afatinib at which no more than one out of six patients experienced a DLT. Once the MTD was determined, a further 12 evaluable patients were included at the MTD level.

HER2 = conditions: read-out: IC50 HER2; cited from earlier work
ErbB4 = conditions: read-out: IC50 ErbB4; cited from earlier work
advanced NSCLC = conditions: cited from earlier work; for response rate: advanced NSCLC
[4] = docetaxel (day 1) followed by intermittent erlotinib (days 2–16 every 3 weeks), previously treated advanced NSCLC; cited from earlier work

With `CC(=O)O[C@@]12CO[C@@H]1C[C@H](O)[C@@]1(C)C(=O)[C@H](O)C3=C(C)[C@@H](OC(=O)[C@H](O)[C@@H](NC(=O)OC(C)(C)C)c4ccccc4)C[C@@](O)([C@@H](OC(=O)c4ccccc4)[C@H]21)C3(C)C` [docetaxel] the “Docetaxel AUC0–∞, gMean” value ([1]; treatment cycle 2 (n = 8)) was 3260 ng·h/mL, the “Docetaxel t1/2, gMean” value ([1]; treatment cycle 2 (n = 8)) was 21.1 h and the half-life (clinical) was 1250 min. It also gave an AUC(0-t) (clinical; Docetaxel AUC0–24, gMean) of 2630 ng·h/mL, a clearance (clinical; Docetaxel CL, gMean) of 712 mL/min and a Cmax (clinical; Docetaxel Cmax, gMean) of 2070 ng/mL. For the same compound, the Vd (clinical; Docetaxel VSS, gMean) was 488 L, the Vd (clinical; Docetaxel Vz, gMean) was 1290 L and the Tmax (clinical; Docetaxel tmax, median) was 1 h. The AUC(0-inf) (clinical; iv, 75 mg/m2) was 3160 ng·h/mL, the “Docetaxel AUC0–24, gMean” value [2] was 2680 ng·h/mL and the “Docetaxel AUC0–∞, gMean ratio cycle 2 to cycle 1” value [2] was 118%. For the same compound, the “Docetaxel CL, gMean” value [2] was 682 mL/min, the “Docetaxel Cmax, gMean” value [2] was 2200 ng/mL and the “Docetaxel Cmax, gMean ratio cycle 2 to cycle 1” value [2] was 115%. For the same compound, the “Docetaxel VSS, gMean” value [2] was 487 L, the “Docetaxel Vz, gMean” value [2] was 1250 L and the “Docetaxel tmax, median” value [2] was 1.00 h.

In the case of `COc1cc2ncnc(Nc3ccc(F)c(Cl)c3)c2cc1OCCCN1CCOCC1` [gefitinib], the objective response rate (advanced solid tumors) is given as 11%.

With `CN(C)C/C=C/C(=O)Nc1cc2c(Nc3ccc(F)c(Cl)c3)ncnc2cc1O[C@H]1CCOC1` [afatinib] the “maximum tolerated dose (MTD) of afatinib” value ([3]; afatinib days 2–4 with docetaxel 75 mg/m^2 day 1, 3-week cycles) was 90 mg/day, the “MTD and recommended phase II dose of afatinib” value ([3]; once daily for 3 days following docetaxel 75 mg/m^2) was 90 mg and the Tmax ([1]; human, in vivo, Afatinib tmax, median, treatment cycle 1 (n = 13)) was 3 h. It also gave an AUC(0-t) (clinical) of 995 ng·h/mL, a Tmax (clinical) of 4.03 h and an AUC(0-t) (clinical; 75 mg/m2) of 879 ng·h/mL. The Cmax (clinical; Afatinib Cmax, gMean) was 71.4 ng/mL, the Vd/F (clinical; Afatinib Vz/F, gMean) was 1500 L and the IC50 (HER2) was 14 nM. For the same compound, the IC50 (ErbB4) was […].

For `C#Cc1cccc(Nc2ncnc3cc(OCCOC)c(OCCOC)cc23)c1` [erlotinib], the response rate (advanced NSCLC; chemotherapy followed by erlotinib) is listed as 28%, the objective response rate (advanced NSCLC; docetaxel (day 1) followed by intermittent erlotinib (days 2–16 every 3 weeks), previously treated advanced NSCLC) is listed as 35% and the response rate (advanced NSCLC; high-dose erlotinib (days 1 and 2) with carboplatin and paclitaxel (day 3)) is listed as 34%. For the same compound, the response rate (advanced NSCLC; low-dose erlotinib, same schedule with carboplatin and paclitaxel) was 18% and the “grade 3/4 neutropenia” value [4] was 60%.
